Each block holds one molecule with its values, some of them ahead of it.
How the values were obtained:
Experiment in all cases: radiometric filter-binding kinase assay
HIPK2 (human) = HIPK2 (human) (UniProt Q9H2X6)
HIPK3 (human) = HIPK3 (human) (UniProt Q9H422)
PAK6 (human) = PAK6 (human) (UniProt Q9NQU5)
PLK1 (human) = PLK1 (human) (UniProt P53350)
GSK3B (human) = GSK3B (human) (UniProt P49841)
ROCK2 (rat) = conditions: accession and sequence are those of the human protein
CAMKK2 (human) = CAMKK2 (human) (UniProt Q96RR4)
SRC (human) = SRC (human) (UniProt P12931)
PAK7 (human) = PAK7 (human) (UniProt Q9P286)
CSK (human) = CSK (human) (UniProt P41240)
RPS6KA5 KD1 KD2 (human) = RPS6KA5 KD1 KD2 (human) (UniProt O75582)
MAPK11 (human) = MAPK11 (human) (UniProt Q15759)
MAPK13 (human) = MAPK13 (human) (UniProt O15264)
PKN2 (human) = PKN2 (human) (UniProt Q16513)
PRKCZ (human) = PRKCZ (human) (UniProt Q05513)
[1] = system: AKT2 (human), P31751 [S474D]
LCK (mouse) = conditions: accession and sequence are those of the human protein
BRSK2 (human) = BRSK2 (human) (UniProt Q8IWQ3)
PRKAA1 or PRKAA2 (rat) = conditions: accession and sequence are those of the human protein
MAPK1 (human) = MAPK1 (human) (UniProt P28482)
MAPK1 (human), sequence (P28482 whole entry, looked up): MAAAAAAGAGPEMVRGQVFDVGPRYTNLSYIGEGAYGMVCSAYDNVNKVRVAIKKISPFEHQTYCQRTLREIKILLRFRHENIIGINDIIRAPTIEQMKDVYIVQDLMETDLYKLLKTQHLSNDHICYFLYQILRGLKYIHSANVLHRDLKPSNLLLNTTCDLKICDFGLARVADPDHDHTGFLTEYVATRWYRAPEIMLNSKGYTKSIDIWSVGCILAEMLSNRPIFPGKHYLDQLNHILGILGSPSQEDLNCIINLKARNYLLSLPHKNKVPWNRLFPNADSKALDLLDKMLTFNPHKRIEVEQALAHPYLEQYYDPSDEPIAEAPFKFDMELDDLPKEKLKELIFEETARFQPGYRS

PRKCZ (human), sequence (Q05513 whole entry, looked up): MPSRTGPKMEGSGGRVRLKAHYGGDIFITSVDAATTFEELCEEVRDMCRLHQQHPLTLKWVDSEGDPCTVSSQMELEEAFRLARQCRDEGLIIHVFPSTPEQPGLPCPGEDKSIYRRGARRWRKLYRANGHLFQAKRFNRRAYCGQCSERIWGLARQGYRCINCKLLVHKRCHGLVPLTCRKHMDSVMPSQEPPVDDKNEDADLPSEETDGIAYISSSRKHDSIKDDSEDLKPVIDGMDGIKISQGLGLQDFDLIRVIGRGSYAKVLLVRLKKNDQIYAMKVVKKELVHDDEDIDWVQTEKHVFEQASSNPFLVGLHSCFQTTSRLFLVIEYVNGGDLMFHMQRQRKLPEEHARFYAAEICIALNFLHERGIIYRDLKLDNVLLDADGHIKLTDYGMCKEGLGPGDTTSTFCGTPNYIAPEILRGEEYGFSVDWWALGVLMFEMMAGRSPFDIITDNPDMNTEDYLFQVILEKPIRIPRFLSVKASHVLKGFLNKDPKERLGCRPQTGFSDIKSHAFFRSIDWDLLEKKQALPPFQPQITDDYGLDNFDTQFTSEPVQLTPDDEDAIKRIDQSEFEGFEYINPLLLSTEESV
HIPK2 (human), sequence (Q9H2X6 whole entry, looked up): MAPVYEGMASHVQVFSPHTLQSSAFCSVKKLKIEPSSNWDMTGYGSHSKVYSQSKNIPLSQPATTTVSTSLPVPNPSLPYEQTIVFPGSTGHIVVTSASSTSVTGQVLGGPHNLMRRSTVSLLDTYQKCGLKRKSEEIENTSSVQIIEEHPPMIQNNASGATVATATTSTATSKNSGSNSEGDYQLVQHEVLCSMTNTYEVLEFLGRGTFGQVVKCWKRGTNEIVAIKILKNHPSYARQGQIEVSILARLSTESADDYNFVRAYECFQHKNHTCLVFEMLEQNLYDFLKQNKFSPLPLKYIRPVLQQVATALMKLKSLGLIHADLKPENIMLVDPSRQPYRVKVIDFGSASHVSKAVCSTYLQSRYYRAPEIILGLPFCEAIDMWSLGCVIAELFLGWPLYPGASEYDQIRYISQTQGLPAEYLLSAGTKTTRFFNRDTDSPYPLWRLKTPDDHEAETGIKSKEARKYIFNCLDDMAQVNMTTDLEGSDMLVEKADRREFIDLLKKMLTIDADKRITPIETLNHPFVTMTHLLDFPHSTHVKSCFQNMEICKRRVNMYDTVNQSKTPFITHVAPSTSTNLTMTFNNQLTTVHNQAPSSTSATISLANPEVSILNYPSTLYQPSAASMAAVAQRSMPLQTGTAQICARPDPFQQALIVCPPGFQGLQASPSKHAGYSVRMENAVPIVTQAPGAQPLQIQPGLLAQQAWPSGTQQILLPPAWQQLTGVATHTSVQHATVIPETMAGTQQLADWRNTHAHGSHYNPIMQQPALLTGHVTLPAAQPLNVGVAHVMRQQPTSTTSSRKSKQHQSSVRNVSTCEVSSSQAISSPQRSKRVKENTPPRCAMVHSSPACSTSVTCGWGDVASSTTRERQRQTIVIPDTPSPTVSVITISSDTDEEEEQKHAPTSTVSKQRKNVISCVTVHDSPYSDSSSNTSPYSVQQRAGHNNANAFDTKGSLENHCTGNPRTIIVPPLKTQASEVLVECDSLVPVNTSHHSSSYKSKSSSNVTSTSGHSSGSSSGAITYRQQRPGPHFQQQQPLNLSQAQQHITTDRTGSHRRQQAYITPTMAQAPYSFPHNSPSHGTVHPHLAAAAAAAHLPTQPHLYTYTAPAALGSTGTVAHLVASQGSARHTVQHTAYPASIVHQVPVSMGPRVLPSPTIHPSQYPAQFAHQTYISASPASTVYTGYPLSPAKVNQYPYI
RPS6KA5 KD1 KD2 (human), sequence (O75582 whole entry, looked up): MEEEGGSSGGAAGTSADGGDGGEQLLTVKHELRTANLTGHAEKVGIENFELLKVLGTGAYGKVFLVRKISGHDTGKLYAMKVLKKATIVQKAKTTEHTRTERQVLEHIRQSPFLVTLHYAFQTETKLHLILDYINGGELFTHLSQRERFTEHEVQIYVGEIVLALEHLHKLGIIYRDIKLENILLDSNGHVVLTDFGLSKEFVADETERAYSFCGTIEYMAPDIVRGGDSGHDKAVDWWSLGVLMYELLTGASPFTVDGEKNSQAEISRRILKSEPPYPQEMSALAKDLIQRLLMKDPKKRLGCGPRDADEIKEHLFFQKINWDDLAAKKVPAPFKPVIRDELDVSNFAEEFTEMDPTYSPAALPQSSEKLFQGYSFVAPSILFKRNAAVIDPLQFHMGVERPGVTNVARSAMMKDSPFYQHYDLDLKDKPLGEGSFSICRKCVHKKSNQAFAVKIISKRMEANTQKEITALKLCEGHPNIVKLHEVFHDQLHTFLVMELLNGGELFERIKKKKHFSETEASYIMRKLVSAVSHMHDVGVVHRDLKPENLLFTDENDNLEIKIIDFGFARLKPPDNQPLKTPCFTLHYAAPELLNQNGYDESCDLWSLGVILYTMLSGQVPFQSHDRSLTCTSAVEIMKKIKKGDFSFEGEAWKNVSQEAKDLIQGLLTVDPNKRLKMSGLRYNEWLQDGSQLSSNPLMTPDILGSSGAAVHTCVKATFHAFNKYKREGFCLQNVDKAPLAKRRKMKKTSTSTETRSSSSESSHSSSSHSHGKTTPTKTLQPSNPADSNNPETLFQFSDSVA
MAPK13 (human), sequence (O15264 whole entry, looked up): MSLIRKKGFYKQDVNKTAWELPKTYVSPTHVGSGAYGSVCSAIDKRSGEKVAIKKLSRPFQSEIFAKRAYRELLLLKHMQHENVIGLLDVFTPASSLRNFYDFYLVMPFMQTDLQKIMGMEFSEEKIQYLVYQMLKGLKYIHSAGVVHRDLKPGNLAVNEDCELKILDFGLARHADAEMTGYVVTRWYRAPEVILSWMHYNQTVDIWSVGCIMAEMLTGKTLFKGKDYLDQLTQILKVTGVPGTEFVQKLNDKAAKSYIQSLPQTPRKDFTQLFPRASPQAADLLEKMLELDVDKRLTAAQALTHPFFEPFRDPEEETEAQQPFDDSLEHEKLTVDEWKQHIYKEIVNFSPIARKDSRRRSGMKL
SRC (human), sequence (P12931 whole entry, looked up): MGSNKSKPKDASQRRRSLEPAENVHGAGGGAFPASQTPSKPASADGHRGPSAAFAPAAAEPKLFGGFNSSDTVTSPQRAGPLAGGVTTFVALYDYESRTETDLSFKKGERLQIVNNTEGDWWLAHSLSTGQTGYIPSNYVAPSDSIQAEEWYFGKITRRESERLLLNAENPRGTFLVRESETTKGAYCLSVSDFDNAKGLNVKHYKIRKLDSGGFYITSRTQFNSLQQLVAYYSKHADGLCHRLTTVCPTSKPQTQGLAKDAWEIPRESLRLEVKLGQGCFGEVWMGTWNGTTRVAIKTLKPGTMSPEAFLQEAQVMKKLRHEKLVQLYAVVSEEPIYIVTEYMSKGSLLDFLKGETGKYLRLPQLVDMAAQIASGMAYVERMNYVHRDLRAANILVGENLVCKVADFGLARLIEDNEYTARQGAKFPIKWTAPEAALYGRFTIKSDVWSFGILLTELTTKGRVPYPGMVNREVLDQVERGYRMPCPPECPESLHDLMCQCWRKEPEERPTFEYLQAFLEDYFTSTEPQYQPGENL
GSK3B (human), sequence (P49841 whole entry, looked up): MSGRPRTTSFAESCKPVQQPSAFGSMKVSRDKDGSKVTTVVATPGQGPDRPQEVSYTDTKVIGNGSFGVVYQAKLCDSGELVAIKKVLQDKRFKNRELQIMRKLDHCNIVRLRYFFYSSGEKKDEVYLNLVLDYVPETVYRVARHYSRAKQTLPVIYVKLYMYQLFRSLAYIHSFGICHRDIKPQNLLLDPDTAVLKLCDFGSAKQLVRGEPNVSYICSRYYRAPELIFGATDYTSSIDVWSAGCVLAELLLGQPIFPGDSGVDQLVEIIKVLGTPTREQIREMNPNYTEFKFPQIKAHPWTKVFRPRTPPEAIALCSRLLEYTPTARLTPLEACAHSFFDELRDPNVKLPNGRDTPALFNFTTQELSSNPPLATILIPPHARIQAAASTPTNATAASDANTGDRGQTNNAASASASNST
CAMKK2 (human), sequence (Q96RR4 whole entry, looked up): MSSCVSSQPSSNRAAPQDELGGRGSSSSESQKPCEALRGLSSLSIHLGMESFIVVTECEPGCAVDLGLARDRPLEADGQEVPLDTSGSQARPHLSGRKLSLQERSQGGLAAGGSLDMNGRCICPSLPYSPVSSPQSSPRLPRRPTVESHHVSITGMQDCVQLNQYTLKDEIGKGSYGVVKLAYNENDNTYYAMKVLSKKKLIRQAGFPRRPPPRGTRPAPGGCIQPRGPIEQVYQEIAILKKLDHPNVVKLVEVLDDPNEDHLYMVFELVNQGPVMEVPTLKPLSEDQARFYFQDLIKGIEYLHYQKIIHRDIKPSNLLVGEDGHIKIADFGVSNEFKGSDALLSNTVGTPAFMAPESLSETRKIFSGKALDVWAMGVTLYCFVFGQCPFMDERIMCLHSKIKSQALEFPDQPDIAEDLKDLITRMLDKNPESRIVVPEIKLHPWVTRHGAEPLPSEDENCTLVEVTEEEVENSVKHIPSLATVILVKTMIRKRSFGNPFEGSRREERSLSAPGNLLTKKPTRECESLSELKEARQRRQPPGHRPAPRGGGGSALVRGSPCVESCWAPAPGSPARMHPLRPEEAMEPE

residual activity (HIPK2 (human); compound 1.0 µM): 113%
residual activity (HIPK2 (human); compound 10.0 µM): 105%
residual activity (HIPK3 (human); compound 1.0 µM): 143%
residual activity (HIPK3 (human); compound 10.0 µM): 136%
residual activity (PAK6 (human); compound 1.0 µM): 113%
residual activity (PAK6 (human); compound 10.0 µM): 101%
residual activity (PLK1 (human); compound 1.0 µM): 92%
residual activity (PLK1 (human); compound 10.0 µM): 94%
residual activity (GSK3B (human); compound 1.0 µM): 119%
residual activity (GSK3B (human); compound 10.0 µM): 125%
residual activity (ROCK2 (rat); compound 1.0 µM): 117%
residual activity (ROCK2 (rat); compound 10.0 µM): 113%
residual activity (CAMKK2 (human); compound 1.0 µM): 112%
residual activity (CAMKK2 (human); compound 10.0 µM): 120%
residual activity (SRC (human); compound 1.0 µM): 96%
residual activity (SRC (human); compound 10.0 µM): 63%
residual activity (PAK7 (human); compound 1.0 µM): 109%
residual activity (PAK7 (human); compound 10.0 µM): 125%
residual activity (CSK (human); compound 1.0 µM): 88%
residual activity (CSK (human); compound 10.0 µM): 76%
residual activity (RPS6KA5 KD1 KD2 (human); compound 1.0 µM): 97%
residual activity (RPS6KA5 KD1 KD2 (human); compound 10.0 µM): 84%
residual activity (MAPK11 (human); compound 1.0 µM): 132%
residual activity (MAPK11 (human); compound 10.0 µM): 127%
residual activity (MAPK13 (human); compound 1.0 µM): 104%
residual activity (MAPK13 (human); compound 10.0 µM): 109%
residual activity (PKN2 (human); compound 1.0 µM): 103%
residual activity (PKN2 (human); compound 10.0 µM): 109%
residual activity (PRKCZ (human); compound 1.0 µM): 97%
residual activity (PRKCZ (human); compound 10.0 µM): 102%
residual activity ([1]; compound 1.0 µM): 103%
residual activity ([1]; compound 10.0 µM): 103%
residual activity (LCK (mouse); compound 1.0 µM): 112%
residual activity (LCK (mouse); compound 10.0 µM): 81%
residual activity (BRSK2 (human); compound 1.0 µM): 99%
residual activity (BRSK2 (human); compound 10.0 µM): 92%
residual activity (PRKAA1 or PRKAA2 (rat); compound 1.0 µM): 105%
residual activity (PRKAA1 or PRKAA2 (rat); compound 10.0 µM): 107%
residual activity (MAPK1 (human); compound 1.0 µM): 107%
residual activity (MAPK1 (human); compound 10.0 µM): 110%
SMILES: Cn1nc(Nc2ccc(F)cc2)c2c(N)ncnc21

residual activity (HIPK2 (human); compound 0.1 µM): 97%
residual activity (HIPK2 (human); compound 1.0 µM): 55%
residual activity (HIPK2 (human); compound 10.0 µM): 24%
residual activity (HIPK3 (human); compound 0.1 µM): 108%
residual activity (HIPK3 (human); compound 1.0 µM): 106%
residual activity (HIPK3 (human); compound 10.0 µM): 59%
residual activity (PAK6 (human); compound 0.1 µM): 107%
residual activity (PAK6 (human); compound 1.0 µM): 82%
residual activity (PAK6 (human); compound 10.0 µM): 71%
residual activity (PLK1 (human); compound 0.1 µM): 99%
residual activity (PLK1 (human); compound 1.0 µM): 98%
residual activity (PLK1 (human); compound 10.0 µM): 79%
residual activity (GSK3B (human); compound 0.1 µM): 67%
residual activity (GSK3B (human); compound 1.0 µM): 20%
residual activity (GSK3B (human); compound 10.0 µM): 5%
residual activity (ROCK2 (rat); compound 0.1 µM): 118%
residual activity (ROCK2 (rat); compound 1.0 µM): 115%
residual activity (ROCK2 (rat); compound 10.0 µM): 112%
residual activity (CAMKK2 (human); compound 0.1 µM): 113%
residual activity (CAMKK2 (human); compound 1.0 µM): 68%
residual activity (CAMKK2 (human); compound 10.0 µM): 37%
residual activity (SRC (human); compound 0.1 µM): 104%
residual activity (SRC (human); compound 1.0 µM): 95%
residual activity (SRC (human); compound 10.0 µM): 63%
residual activity (PAK7 (human); compound 0.1 µM): 108%
residual activity (PAK7 (human); compound 1.0 µM): 81%
residual activity (PAK7 (human); compound 10.0 µM): 85%
residual activity (CSK (human); compound 0.1 µM): 84%
residual activity (CSK (human); compound 1.0 µM): 78%
residual activity (CSK (human); compound 10.0 µM): 58%
residual activity (RPS6KA5 KD1 KD2 (human); compound 0.1 µM): 11%
residual activity (RPS6KA5 KD1 KD2 (human); compound 1.0 µM): 3%
residual activity (RPS6KA5 KD1 KD2 (human); compound 10.0 µM): 3%
residual activity (MAPK11 (human); compound 0.1 µM): 119%
residual activity (MAPK11 (human); compound 1.0 µM): 102%
residual activity (MAPK11 (human); compound 10.0 µM): 95%
residual activity (MAPK13 (human); compound 0.1 µM): 89%
residual activity (MAPK13 (human); compound 1.0 µM): 65%
residual activity (MAPK13 (human); compound 10.0 µM): 37%
residual activity (PKN2 (human); compound 0.1 µM): 63%
residual activity (PKN2 (human); compound 1.0 µM): 13%
residual activity (PKN2 (human); compound 10.0 µM): 4%
residual activity (PRKCZ (human); compound 0.1 µM): 118%
residual activity (PRKCZ (human); compound 1.0 µM): 74%
residual activity (PRKCZ (human); compound 10.0 µM): 62%
residual activity ([1]; compound 0.1 µM): 80%
residual activity ([1]; compound 1.0 µM): 44%
residual activity ([1]; compound 10.0 µM): 13%
residual activity (LCK (mouse); compound 0.1 µM): 103%
residual activity (LCK (mouse); compound 1.0 µM): 75%
residual activity (LCK (mouse); compound 10.0 µM): 41%
residual activity (BRSK2 (human); compound 0.1 µM): 72%
residual activity (BRSK2 (human); compound 1.0 µM): 18%
residual activity (BRSK2 (human); compound 10.0 µM): 6%
residual activity (PRKAA1 or PRKAA2 (rat); compound 0.1 µM): 64%
residual activity (PRKAA1 or PRKAA2 (rat); compound 1.0 µM): 19%
residual activity (PRKAA1 or PRKAA2 (rat); compound 10.0 µM): 24%
residual activity (MAPK1 (human); compound 0.1 µM): 114%
residual activity (MAPK1 (human); compound 1.0 µM): 110%
residual activity (MAPK1 (human); compound 10.0 µM): 106%
SMILES: COc1ccc2c(c1)c1c3c(c4c5ccccc5n(C)c4c1n2CC(O)CN(C)C)C(=O)NC3=O (stereo not given)
